Entries after “also recorded” stand apart in the source; their conditions may differ. Non-standard residues stand in square brackets, D forms with d. Residues, ends and D or L forms follow the SMILES beside them.
Columns and labels:
plasma HDL = assay: in vivo plasma HDL remodeling after intraperitoneal injection (Western blotting for mouse apoA-I); details: male BALB/c mice (n=3), i.p. 20 mg/kg; FIG. 3a; 20 mg/kg
Method: To ascertain if the cyclic D,L-α-peptides function in vivo as modulators of HDL, we administered 1 to mice (BALB/c, n=3) via intraperitoneal injection (i.p.) at a dose of 20 mg/kg. After various times, blood was drawn and the plasma was analyzed by Western blotting to determine the levels of the HDL subpopulations.
In vivo plasma remodeling: Cyclic peptide c[wLwReQeR], 1, was dissolved in 10% sucrose, and sterile filtered through a 0.22-μm syringe filter before injection. Mice were fasted beginning 12 h before dosing, and continued the fast until after the 8-h time point blood draw was completed. Groups of three mice received a 20 mg/kg dose of the cyclic peptide via intraperitoneal injection (0.3 mL). Blood was drawn (30-60 μL) from the retro-orbital sinus into a heparinized capillary tube before dosing (0 min) and at different intervals from 30 min to 8 h after dosing. Plasma was isolated immediately from the whole blood by centrifugation at 5000 rpm for 10 min at 4° C., after which 10 μL of plasma were mixed with 90 μL of 50% sucrose, vortexed for 30 s, and stored at 4° C. until all time points had been collected (samples were stored from 0-8 h). Samples were then mixed with 20 μL of 6× native loading buffer (125 mM tris, pH 6.8, 0.02% bromophenol, 20% glycerol). 6 μL of these samples were loaded onto a 4-20% polyacrylamide gel. Gels were run at constant 80 V at 4° C. for 14 h using a Laemli buffer system (25 mM tris, 192 mM glycine, pH 8.3). Gels were then blotted onto nitrocellulose membranes (0.45 μm, Bio-Rad) at constant 30 V at 4° C. for 2 h using the Laemli buffer (no methanol). The membrane was blocked with 5% non-fat dry milk (NFDM) in TBST (20 mM tris, 150 mM NaCl, pH 7.6, 0.1% Tween-20) for 1 h at 23° C., and then washed once for 10 min with TBST. […]
In vivo plasma HDL remodeling activities of some of the peptides were also analyzed. […] Results shown in the figure were determined by Western blotting for mouse apoA-I.

[1] = plasma concentration during oral administration in drinking water; format: in vivo; details: LDLr-null (LDLr−/−), mouse, orally in the drinking water at 25 mg/kg/day, limit of detection 1 μM
Source text: We continued oral administration of the peptide to the animals for an additional eight weeks (ten weeks total for the study) to determine how the peptide would impact the development of atherosclerotic lesions (see FIG. 6 for treatment schedule). At the completion of the 10-week study, the total plasma cholesterol level in the peptide-treated animals was 30% lower than in control animals (FIG. 2c). Moreover, an analysis of the whole aorta lesion area and the aortic sinus lesion volume indicated reductions in atherosclerotic lesions of 26% and 50%, respectively (FIGS. 2c, d). […] When administered orally in the drinking water at 25 mg/kg/day, the plasma concentration of compound 1 was below the 1 μM limit of detection (data not shown).
LC-MS SIM quantitation of peptide concentration: Cyclic peptide concentrations were quantified by using reverse-phase HPLC coupled with mass spectrometry. The electrospray ionization mass spectrometry measurements were carried out in the positive ionization mode using a single quadrupole mass spectrometer (Hewlett Packard HP 1100 MSD series). […] For quantitative calibration, standard curves were established using mouse EDTA-anticoagulated plasma spiked with various concentrations of the peptide. […]

## CC(C)C[C@@H]1NC(=O)[C@@H](Cc2c[nH]c3ccccc23)NC(=O)[C@H](CCCNC(=N)N)NC(=O)[C@@H](CCC(=O)O)NC(=O)[C@H](CCC(N)=O)NC(=O)[C@@H](CCC(=O)O)NC(=O)[C@H](CCCNC(=N)N)NC(=O)[C@@H](Cc2c[nH]c3ccccc23)NC1=O [SEQ ID NO:1, c[wLwReQeR]] (cyclo([dW]L[dW]R[dE]Q[dE]R))
Plasma HDL
  level of lipid-poor HDL in plasma: marked increase in the amount of lipid-poor HDL for up to 8 h; also recorded: increased the level of lipid-poor HDL
[1]
  level at time molar: < 1000 nM

From patent publication US10092620B2, “Uses of cyclic peptides for treating and preventing atherosclerosis” (THE SCRIPPS RESEARCH INSTITUTE, priority 2013, dated 2018)
